Article PMC2248166, “Quantitative peptide binding motifs for 19 human and mouse MHC class I molecules derived using positional scanning combinatorial peptide libraries” (Immunome Research, 2008)
Where a SMILES comes first, the peptide text is derived from it.

Legend:
Assay type in all cases: binding
HLA B*5301 = HLA B*5301 (Homo sapiens, UniProt P01889, A329T/A93T/A95T/C349S/D201E/D98Y/E176V/E187L/E204Q/E69T/G107R/I218V/K202T/L105A/L119I/N104I/Q94N/R106L/R155S/R180L/S101N/S121R/S35A/S48A/T118I/V127L/V306I/V36M/Y140S/Y91F)
HLA A*6802 = HLA A*6802 (Homo sapiens, UniProt P04439, A269V/D140Y/D185E/E176V/E277Q/E87N/F33Y/G231S/I121R/I166T/I218V/L180W/L300P/L318F/N151K/P208A/P217A/Q86R/R138H/R169H/S129P/T345S/V36M)
HLA B*5802 = HLA B*5802 (Homo sapiens, UniProt P01889, A329T/C349S/D201E/D98Y/E176V/E187L/E204Q/E69T/G107R/I218V/I90N/K202T/L105A/N104I/N87E/Q89R/Q94S/R106L/R155S/R180L/R86G/S101N/S121W/S35A/S48A/V127L/V306I/V36M/Y140S/Y91M)
HLA B*5101 = HLA B*5101 (Homo sapiens, UniProt P01889, A329T/A93T/A95T/C349S/D138N/D201E/D98Y/E187L/E204Q/E69T/G107R/I218V/K202T/L105A/L119W/N104I/Q94N/R106L/R155S/R180L/S101N/S121T/S35A/S48A/V306I/V36M/Y195H/Y91F)
HLA A*3001 = HLA A*3001 (Homo sapiens, UniProt P04439, D140H/D185E/E176W/F33S/G80R/H175R/K168Q/R138E/R41S); experiment: biochemical
H-2 K^d = H-2 K^d (Mus musculus, UniProt P01902)
HLA B*0801 = HLA B*0801 (Homo sapiens, UniProt P01889, A93T/A95T/D138N/E176V/E187T/K202T/Q94N/R180D/S35A/V36M/Y33D/Y91F); experiment: biochemical
HLA B*1503 = HLA B*1503 (Homo sapiens, UniProt P01889, A329T/A93T/A95T/C349S/D201E/D98Y/E187L/E204Q/K202T/N87E/Q94N/R155S/R180L/S121R/S35A/V306I/V36M/Y140S/Y91S); experiment: biochemical
HLA B*3501 = HLA B*3501 (Homo sapiens, UniProt P01889, A329T/A93T/A95T/C349S/D201E/D98Y/E176V/E187L/E204Q/E69T/I218V/K202T/L119I/Q94N/R155S/R180L/S121R/S35A/S48A/T118I/V127L/V306I/V36M/Y140S/Y91F)
H-2 D^d = H-2 D^d (Mus musculus, UniProt P01900)
HLA B*5801 = HLA B*5801 (Homo sapiens, UniProt P01889, A329T/C349S/D201E/D98Y/E176V/E187L/E204Q/E69T/G107R/I218V/I90N/K202T/L105A/L119I/N104I/N87E/Q89R/Q94S/R106L/R155S/R180L/R86G/S101N/S121R/S35A/S48A/T118I/V127L/V306I/V36M/Y140S/Y91M)
HLA B*1501 = HLA B*1501 (Homo sapiens, UniProt P01889, A329T/A93T/A95T/C349S/D201E/D98Y/E187L/E204Q/E69M/E70A/K202T/N87E/Q94N/R155S/R180W/S121R/S35A/S48A/V306I/V36M/Y140S/Y91S); experiment: biochemical
H-2 D^b = H-2 D^b (Mus musculus, UniProt P01899)
H-2 K^k = H-2 K^k (Mus musculus, UniProt P04223)
HLA A*3201 = HLA A*3201 (Homo sapiens, UniProt P04439, A270S/D101S/D185E/E176V/E277Q/F133L/G103R/G107R/G231S/H175R/I121M/I218V/I322F/K168Q/L105A/L300P/L318F/M331R/P208A/P217A/Q94H/R106L/R138Q/S129P/T104I/T323A/T345S/V100E/V321M/V358M); experiment: biochemical
HLA B*5401 = HLA B*5401 (Homo sapiens, UniProt P01889, A329T/C349S/D138N/D201E/E176V/E187T/E204Q/E69G/I76V/K202T/L119W/R155S/R180L/S121T/S35A/S48A/V127L/V306I/V36M/Y140L)

Chain of H-2 D^d (P01900 whole entry, looked up): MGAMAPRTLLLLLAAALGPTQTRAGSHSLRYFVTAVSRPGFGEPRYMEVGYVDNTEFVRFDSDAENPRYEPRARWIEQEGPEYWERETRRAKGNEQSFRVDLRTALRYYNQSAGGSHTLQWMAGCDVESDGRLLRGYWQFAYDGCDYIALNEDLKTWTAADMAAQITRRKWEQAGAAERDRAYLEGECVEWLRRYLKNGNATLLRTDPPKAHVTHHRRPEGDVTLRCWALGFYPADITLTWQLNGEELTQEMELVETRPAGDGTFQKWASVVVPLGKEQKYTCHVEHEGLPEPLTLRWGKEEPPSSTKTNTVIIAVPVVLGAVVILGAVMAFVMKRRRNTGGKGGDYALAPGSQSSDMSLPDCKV
Chain of H-2 D^b (P01887 21-119): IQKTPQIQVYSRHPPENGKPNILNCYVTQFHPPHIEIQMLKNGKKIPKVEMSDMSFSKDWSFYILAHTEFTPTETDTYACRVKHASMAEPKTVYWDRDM
Chain of H-2 D^b (P01899 25-362): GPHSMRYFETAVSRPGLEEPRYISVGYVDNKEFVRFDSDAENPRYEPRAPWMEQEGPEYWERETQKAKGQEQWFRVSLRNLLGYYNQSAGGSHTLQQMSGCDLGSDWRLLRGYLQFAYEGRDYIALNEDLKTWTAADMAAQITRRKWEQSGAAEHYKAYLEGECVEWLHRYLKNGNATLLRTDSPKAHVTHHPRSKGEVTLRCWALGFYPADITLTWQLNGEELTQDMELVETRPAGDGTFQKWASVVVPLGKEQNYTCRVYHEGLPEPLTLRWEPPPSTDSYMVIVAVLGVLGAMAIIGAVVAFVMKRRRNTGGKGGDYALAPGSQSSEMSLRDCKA
Chain of H-2 K^d (P01887 21-119): as the sequence (P01887 21-119) above
Chain of H-2 K^d (P01902 22-368): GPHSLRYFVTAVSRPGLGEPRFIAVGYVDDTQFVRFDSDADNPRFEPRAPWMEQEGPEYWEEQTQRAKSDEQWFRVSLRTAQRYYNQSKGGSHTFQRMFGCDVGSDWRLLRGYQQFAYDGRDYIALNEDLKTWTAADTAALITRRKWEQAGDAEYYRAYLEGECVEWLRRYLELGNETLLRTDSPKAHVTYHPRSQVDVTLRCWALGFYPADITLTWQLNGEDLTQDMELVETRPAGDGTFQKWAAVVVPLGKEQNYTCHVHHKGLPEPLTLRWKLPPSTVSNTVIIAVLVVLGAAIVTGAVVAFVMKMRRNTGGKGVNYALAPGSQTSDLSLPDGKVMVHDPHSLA
Chain of H-2 K^k (P01887 21-119): as the sequence (P01887 21-119) above
Chain of H-2 K^k (P04223 22-369): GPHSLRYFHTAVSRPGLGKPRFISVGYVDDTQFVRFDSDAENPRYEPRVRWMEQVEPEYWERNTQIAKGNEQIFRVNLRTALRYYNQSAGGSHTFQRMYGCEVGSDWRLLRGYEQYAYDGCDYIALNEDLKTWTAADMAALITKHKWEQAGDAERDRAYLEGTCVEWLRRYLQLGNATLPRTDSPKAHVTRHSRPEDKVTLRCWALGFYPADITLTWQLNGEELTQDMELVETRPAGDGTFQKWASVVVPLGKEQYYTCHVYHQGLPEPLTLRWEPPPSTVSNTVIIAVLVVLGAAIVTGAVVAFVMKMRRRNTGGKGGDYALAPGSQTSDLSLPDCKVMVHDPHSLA

## XXXXXEXXX [3064.0104]
HLA B*5301
  Normalized average relative binding affinity(ARB): 0.21
HLA A*6802
  Normalized average relative binding affinity(ARB): 0.75
HLA B*5802
  Normalized average relative binding affinity(ARB): 0.14
HLA B*5101
  Normalized average relative binding affinity(ARB): 0.12
HLA A*3001
  Normalized average relative binding affinity(ARB): 0.059
H-2 K^d
  Normalized average relative binding affinity(ARB): 0.083
HLA B*0801
  Normalized average relative binding affinity(ARB): 0.023
HLA B*1503
  Normalized average relative binding affinity(ARB): 0.40
HLA B*3501
  Normalized average relative binding affinity(ARB): 0.21
H-2 D^d
  Normalized average relative binding affinity(ARB): 0.31
HLA B*5801
  Normalized average relative binding affinity(ARB): 0.80
HLA B*1501
  Normalized average relative binding affinity(ARB): 0.30
H-2 D^b
  Normalized average relative binding affinity(ARB): 0.43
H-2 K^k
  Normalized average relative binding affinity(ARB): 0.18
HLA A*3201
  Normalized average relative binding affinity(ARB): 0.35
HLA B*5401
  Normalized average relative binding affinity(ARB): 0.065

## XXXXXTXXX [3064.0117]
HLA B*5301
  Normalized average relative binding affinity(ARB): 0.30
HLA A*6802
  Normalized average relative binding affinity(ARB): 0.84
HLA B*5802
  Normalized average relative binding affinity(ARB): 0.17
HLA B*5101
  Normalized average relative binding affinity(ARB): 0.32
HLA A*3001
  Normalized average relative binding affinity(ARB): 0.27
H-2 K^d
  Normalized average relative binding affinity(ARB): 0.26
HLA B*0801
  Normalized average relative binding affinity(ARB): 0.068
HLA B*1503
  Normalized average relative binding affinity(ARB): 0.79
HLA B*3501
  Normalized average relative binding affinity(ARB): 0.16
H-2 D^d
  Normalized average relative binding affinity(ARB): 1.0
HLA B*5801
  Normalized average relative binding affinity(ARB): 0.72
HLA B*1501
  Normalized average relative binding affinity(ARB): 0.55
H-2 D^b
  Normalized average relative binding affinity(ARB): 0.55
H-2 K^k
  Normalized average relative binding affinity(ARB): 0.70
HLA A*3201
  Normalized average relative binding affinity(ARB): 0.77
HLA B*5401
  Normalized average relative binding affinity(ARB): 0.32

## CC(C)C[C@H](NC(=O)[C@H](CC(C)C)NC(=O)[C@@H](N)CCCCN)C(=O)N[C@@H](CO)C(=O)N[C@@H](Cc1c[nH]cn1)C(=O)N[C@@H](Cc1ccccc1)C(=O)N[C@@H](Cc1ccc(O)cc1)C(=O)N1CCC[C@H]1C(=O)N[C@@H](C)C(=O)O [3102.0665] (H-KLLSHFYPA-OH)
HLA B*0801
  IC50: 81 nM
HLA B*1503
  IC50: 5.4 nM
HLA B*1501
  IC50: 39 nM
HLA A*3201
  IC50: 129 nM

## CC(C)C[C@H](NC(=O)[C@H](CCCCN)NC(=O)[C@H](CCCCN)NC(=O)[C@H](Cc1ccc(O)cc1)NC(=O)[C@H](CC(C)C)NC(=O)[C@@H](NC(=O)[C@@H](N)Cc1ccc(O)cc1)[C@@H](C)O)C(=O)N[C@@H](CO)C(=O)N[C@@H](Cc1ccccc1)C(=O)O [3102.0333] (H-YTLYKKLSF-OH)
HLA A*3001
  IC50: 23 nM
HLA B*0801
  IC50: 16 nM
HLA B*1501
  IC50: 14 nM
HLA A*3201
  IC50: 194 nM

## CC(C)C[C@H](NC(=O)[C@@H](N)CC(C)C)C(=O)N[C@@H](Cc1ccccc1)C(=O)N[C@@H](Cc1ccc(O)cc1)C(=O)N[C@H](C(=O)N[C@@H](CCCNC(=N)N)C(=O)N[C@@H](Cc1c[nH]cn1)C(=O)N[C@@H](CCCNC(=N)N)C(=O)N[C@@H](Cc1ccccc1)C(=O)O)[C@@H](C)O [3102.1058] (H-LLFYTRHRF-OH)
HLA B*0801
  IC50: 46 nM
HLA B*1503
  IC50: 0.21 nM
HLA B*1501
  IC50: 0.85 nM
HLA A*3201
  IC50: 2.6 nM

## CSCC[C@H](NC(=O)[C@@H](NC(=O)[C@@H](N)CCCCN)[C@@H](C)O)C(=O)N[C@@H](C)C(=O)N[C@H](C(=O)N[C@H](C(=O)N[C@@H](Cc1ccc(O)cc1)C(=O)N[C@@H](CCC(=O)O)C(=O)N[C@@H](CC(C)C)C(=O)O)[C@@H](C)O)C(C)C [3102.0293] (H-KTMAVTYEL-OH)
HLA B*0801
  IC50: 19 nM
HLA B*1501
  IC50: 5.5 nM
HLA A*3201
  IC50: 0.58 nM

## CC[C@H](C)[C@H](NC(=O)[C@H](CCCNC(=N)N)NC(=O)[C@H](Cc1ccc(O)cc1)NC(=O)[C@H](CCSC)NC(=O)[C@H](CO)NC(=O)[C@@H](N)CCCNC(=N)N)C(=O)N1CCC[C@H]1C(=O)N1CCC[C@H]1C(=O)N[C@@H](Cc1ccccc1)C(=O)O [3102.0766] (H-RSMYRIPPF-OH)
HLA B*0801
  IC50: 158 nM
HLA A*3201
  IC50: 0.73 nM

## CSCC[C@H](NC(=O)[C@H](CC(C)C)NC(=O)[C@@H](N)CCSC)C(=O)N[C@@H](CC(N)=O)C(=O)N[C@@H](Cc1c[nH]cn1)C(=O)N[C@H](C(=O)N[C@@H](C)C(=O)N[C@@H](CC(N)=O)C(=O)N[C@@H](Cc1ccccc1)C(=O)O)C(C)C [3102.0720] (H-MLMNHVANF-OH)
HLA B*0801
  IC50: 3.3 nM
HLA A*3201
  IC50: 8.3 nM

## CC[C@H](C)[C@H](NC(=O)[C@H](Cc1c[nH]cn1)NC(=O)[C@H](CS)NC(=O)[C@H](CC(C)C)NC(=O)[C@H](CC(C)C)NC(=O)[C@@H](N)CC(N)=O)C(=O)N[C@@H](Cc1ccc(O)cc1)C(=O)N[C@@H](CO)C(=O)N[C@@H](CC(C)C)C(=O)O [3102.0692] (H-NLLCHIYSL-OH)
HLA B*0801
  IC50: 0.31 nM
HLA A*3201
  IC50: 232 nM

## CC(C)C[C@H](NC(=O)[C@@H]1CCCN1C(=O)[C@H](CO)NC(=O)[C@H](Cc1ccccc1)NC(=O)[C@H](Cc1ccc(O)cc1)NC(=O)[C@H](CCCCN)NC(=O)[C@H](C)NC(=O)[C@@H](NC(=O)[C@H](C)N)C(C)C)C(=O)O [3102.0978] (H-AVAKYFSPL-OH)
HLA B*0801
  IC50: 190 nM
HLA B*1501
  IC50: 16 nM
HLA A*3201
  IC50: 283 nM

## CC[C@H](C)[C@H](NC(=O)[C@@H](NC(=O)[C@H](Cc1c[nH]cn1)NC(=O)[C@H](CCCNC(=N)N)NC(=O)[C@H](CC(C)C)NC(=O)[C@@H](NC(=O)[C@H](Cc1ccccc1)NC(=O)[C@H](CCSC)NC(=O)[C@@H](N)CO)[C@@H](C)O)[C@@H](C)CC)C(=O)O [3102.0752] (H-SMFTLRHII-OH)
HLA B*0801
  IC50: 1.8 nM
HLA A*3201
  IC50: 83 nM

## CC[C@H](C)[C@H](NC(=O)[C@@H](NC(=O)[C@H](CC(N)=O)NC(=O)[C@H](CCSC)NC(=O)[C@@H](N)CO)[C@@H](C)O)C(=O)N[C@@H](CCCCN)C(=O)N[C@@H](CCC(N)=O)C(=O)N[C@@H](CO)C(=O)N[C@@H](Cc1ccccc1)C(=O)O [3102.1144] (H-SMNTIKQSF-OH)
HLA B*0801
  IC50: 450 nM
HLA B*1503
  IC50: 17 nM
HLA A*3201
  IC50: 293 nM

## CC[C@H](C)[C@H](NC(=O)[C@H](CO)NC(=O)[C@H](C)NC(=O)[C@@H](NC(=O)[C@@H](NC(=O)[C@H](CC(N)=O)NC(=O)[C@H](CCCNC(=N)N)NC(=O)[C@@H](NC(=O)[C@@H](N)CCCNC(=N)N)C(C)C)[C@@H](C)CC)[C@@H](C)CC)C(=O)O [3102.0367] (H-RVRNIIASI-OH)
HLA A*3001
  IC50: 0.1 nM
HLA B*0801
  IC50: 22 nM
HLA A*3201
  IC50: 1 nM
